Among the data in patent EP0443560A2, “HIV protease inhibitors” (priority 1990, dated 1991) are IC50 values, retold here.

The target of the first assay is T1, HIV protease (Human immunodeficiency virus type 1 group M subtype B, UniProt P04585).
T1 construct: HIV protease was expressed in E. coli [construct pBRT1 prt⁺; made in house; host or cells: E. coli
As to the kind of experiment: Recombinant HIV Protease HPLC Assay. In kind it is biochemical.
Conditions: not given
The text has this: The procedure is based on the capacity of the test compound to inhibit enzymatic cleavage by HIV protease of a decapeptide (the substrate) having an amino acid sequence which includes a known HIV protease cleavage site of a HIV polyprotein; see H.G. Krausslich et al., Proc. Natl. Acad. Sci. USA, 86, 807 (1989). Details of this assay together with the results obtained for exemplified compounds of formula 1 are described in the examples hereinafter.
Recombinant HIV Protease HPLC Assay:
HIV protease was expressed in E. coli [construct pBRT1 prt⁺, see W.G. Farmerie et al., Science, 236, 305 (1987)], according to the following protocol: Unless stated otherwise, all solutions are aqueous solutions.
E. coli cells containing the pBRT1 prt⁺ plasmid were used to inoculate a seed culture media composed of Luria-Bertani Broth containing 100µg/mL of ampicillin. Flasks were incubated at 37° under agitation for 17 h. Production flasks containing sterile M9 broth, supplemented with 100µg/ml of ampicillin, were inoculated at a level of 1% (v/v) using the seed culture described above. Total volume in each production flask was 500 mL in a 2 L Erlenmeyer flask. Flasks were incubated at 37° under agitation until a cell concentration corresponding to an optical density (λ = […]) of 0.6 was reached (no dilution). This time span was routinely 3-4 h. Flasks were then supplemented with 5mM isopropylthiogalactoside (IPTG, Research Organics, Cleveland, Ohio, USA) and incubation was continued until the cell concentration reached an optical density of 0.2 at 16-fold dilution. Flasks were then supplemented with 1mM phenylmethylsulfonyl fluoride (PMSF) and rapidly chilled to 4°. The bacterial cells were recovered by centrifugation at 4°. The wet pellet was stored at -70°.
All steps below were performed at 4° unless otherwise indicated. Thawed cells were mixed with buffer A [50 mM tris(hydroxymethyl)[…] HCl(Tris-HCl, pH 7.4); 0.6 mM ethylenediaminetetraacetic acid (EDTA); 0.375 M NaCl, 0.2% Nonidet P-40 ® (BDH Chemicals Ltd., Poole, UK); 1mM PMSF], at a ratio of one part cells to nine parts buffer A. Diatomaceous earth (Celite 545 ® , John Manville, Lompoc, CA, USA) was added at a ratio of two parts to one part of wet cell weight. The resulting slurry was homogenized at high speed (ca. 20,000 rpm) on a Waring ® industrial blender for 8 x 15 sec. pulses. Cell debris/Celite ® was collected by centrifugation and the resulting pellet was extracted with 4.5 parts of buffer A to one part wet solids using the homogenization procedure described above. Supernatants from both homogenization steps were combined and soluble protein was precipitated by the addition of solid (NH₄)₂SO₄ to yield a final concentration of 75% saturation. This mixture was agitated for 60 min and the precipitate was recovered by centrifugation. The resulting pellet was suspended in buffer B [50mM Tris-HCl, pH 8; 30 mM NaCl; 1 mM DL-dithiothreitol(DTT); 1 mM EDTA; 1 mM PMSF; 10% glycerol], and dialyzed for 18h against the same buffer.
An aliquot of the dialyzed extract containing 150 mg of the protein was loaded onto a Sephadex A25 ® anion exchange column. (Pharmacia, Uppsala, Sweden) with bed dimensions of 70 cm length and 2.5 cm diameter. The sample was eluted isocratically with buffer B at a linear flow rate of 10 cm/h. Fractions containing HIV protease activity (see below for assay description) were combined, and soluble protein was precipitated by the addition of saturated aqueous (NH₄)₂SO₄ to yield a total (NH₄)₂SO₄ concentration of 85% saturation. Precipitated protein was removed by centrifugation and the resulting pellet was dissolved in buffer C [50 mM 2-(4-morpholino)ethanesulfonic acid (MES), pH 5.5; 150 mM NaCl; 1 mM DTT; 1 mM EDTA; 10% glycerol). This preparation was dialyzed for 18h against buffer C, and then frozen at -70°. All crude extracts were purified by chromatography in aliquots containing 150 mg of protein in the same manner as described above. […]
Turning to `CC(C)(C)OC(=O)NC(C(O)CC(=O)NC(CCC(=O)O)C(=O)NCCCc1ccccc1)C(O)C1CCCCC1` (stereo not shown) [Example 33, Boc-HACHPA-Glu-NHCH₂CH₂CH₂Ph], the IC50 was 7.7 nM.
`CCCCCCCCNC(=O)C(CCC(=O)O)NC(=O)CC(O)C(CC1CCCCC1)NC(=O)OC(C)(C)C` (stereo not shown) [Example 13, Boc-ACHPA-Glu-NH(CH₂)₇CH₃]: the IC50 was determined as 40 nM.
On the same count and under the same terms, in the case of `CCC(CC)C(=O)NC(CC1CCCCC1)C(O)CC(=O)NC(CCC(=O)O)C(=O)NCCc1ccccc1` (stereo not shown) [Example 6, (C₂H₅)₂CHC(O)-ACHPA-Glu-NHCH₂CH₂Ph] it was 93 nM.
On the same count and under the same terms, in the case of `CC(C)C[C@H](NC[C@H](Cc1ccccc1)NC(=O)OC(C)(C)C)C(=O)N[C@@H](CCC(=O)O)C(=O)NCCCc1ccccc1` [Example 1, Boc-PheΨ[CH₂NH]Leu-Glu-NHCH₂CH₂CH₂Ph] it was 36 nM; in that of `CC(C)(C)OC(=O)NC(CC1CC1)C(O)CC(=O)NC(CCC(=O)O)C(=O)NCCCc1ccccc1` (stereo not shown) [Example 18, Boc-ACPPA-Glu-NHCH₂CH₂CH₂Ph], 180 nM.
As for `CC(C)(C)OC(=O)NC(CC1CCCCC1)C(O)CC(=O)NC(CCC(=O)O)C(=O)OCCCc1ccccc1` (stereo not shown) [Example 25, Boc-ACHPA-Glu-OCH₂CH₂CH₂Ph], the IC50 came to 85 nM.
Same read-out and setting: in the case of `O=C(O)CCC(NC(=O)CC(O)C(CC1CCCCC1)NC(=O)C1CCCCC1)C(=O)NCCc1ccccc1` (stereo not shown) [Example 12, (Cyclohexylcarbonyl)-ACHPA-Glu-NHCH₂CH₂Ph] it was 130 nM.
As for `CC(C)(C)NC(=O)NC(CC1CCCCC1)C(O)CC(=O)NC(CCC(=O)O)C(=O)NCCCc1ccccc1` (stereo not shown) [Example 26, (CH₃)₃CNHCO-ACHPA-Glu-NHCH₂CH₂CH₂Ph], the IC50 came to 120 nM.
Turning to `COC(=O)CCC(NC(=O)CC(O)C(CC1CCCCC1)NC(=O)OC(C)(C)C)C(=O)NCCCc1ccccc1` (stereo not shown) [Example 5, Boc-ACHPA-Glu(OMe)-NHCH₂CH₂CH₂Ph], the IC50 was found to be 110 nM.
Same read-out and setting: in the case of `CSc1ccc(CCNC(=O)C(CCC(=O)O)NC(=O)CC(O)C(CC2CCCCC2)NC(=O)OC(C)(C)C)cc1` (stereo not shown) [Example 22, Boc-ACHPA-Glu-NHCH₂CH₂-(4MeS-Ph)] it was 18 nM; in that of `CC(C)(C)OC(=O)NC(CC1CCCCC1)C(O)CC(=O)NC(CCC(=O)O)C(=S)NCCCc1ccccc1` (stereo not shown) [Example 31, Boc-ACHPA-GluΨ[CSNH]-NHCH₂CH₂CH₂Ph], 380 nM.

Staying with this assay, now noted: read-out: IC₅₀; recombinant HIV protease HPLC assay; values in parenthesis in text.
On to `CC(C)(C)OC(=O)N[C@@H](CC1CCCCC1)[C@@H](O)CC(=O)N[C@@H](CCC(=O)O)C(=O)NCCCc1ccc(F)cc1` [Boc-ACHPA-Glu-NHCH₂CH₂CH₂-(4F-Ph)], for which the IC50 is 5.6 nM.
As to `CC(C)(C)OC(=O)N[C@@H](CC1CCCCC1)[C@@H](O)CC(=O)N[C@@H](CCC(=O)O)C(=O)NCCc1ccc(Cl)cc1` [Boc-ACHPA-Glu-NHCH₂CH₂-(4-Cl-Ph)], the IC50 turned out to be 12 nM.
For the molecule `COC(=O)CC[C@H](NC(=O)C[C@H](O)[C@H](CC1CCCCC1)NC(=O)OC(C)(C)C)C(=O)NCCCc1ccc(F)cc1` [Boc-ACHPA-Glu(OMe)-NHCH₂CH₂CH₂-(4F-Ph)], the IC50 turned out to be 83 nM.
For the molecule `COC(=O)CC[C@H](NC(=O)C[C@H](O)[C@H](CC1CCCCC1)NC(=O)OC(C)(C)C)C(=O)NCCOc1ccccc1Cl` [Boc-ACHPA-Glu(OMe)-NHCH₂CH₂O-(2Cl-Ph)], the IC50 was 140 nM.

Still in this assay, the particulars now being: recombinant HIV protease HPLC assay; values in parenthesis in text; read-out: IC₅₀.
On to `COC(=O)CC[C@H](NC(=O)C[C@H](O)[C@@H](NC(=O)OC(C)(C)C)[C@@H](O)C1CCCCC1)C(=O)NCCCc1ccccc1` [Boc-HACHPA-Glu(OMe)-NHCH₂CH₂CH₂Ph], for which the IC50 worked out at 120 nM.
On the same count and under the same terms, in the case of `COc1ccc(CCNC(=O)[C@H](CCC(=O)O)NC(=O)C[C@H](O)[C@H](CC2CCCCC2)NC(=O)OC(C)(C)C)cc1` [Boc-ACHPA-Glu-NHCH₂CH₂-(4-MeO-Ph)] it was 33 nM.
The same measure, in the same setting: in the case of `CC(C)(C)OC(=O)NC(CC1CCCCC1)C(O)CC(=O)NC(CCC(=O)O)C(=O)NCCOCc1ccccc1` (stereo not shown) [Boc-ACHPA-Glu-NHCH₂CH₂OBzl] it was 7.1 nM.
With “Boc(4F-Phe)Ψ[CH₂NH]Cpa-Glu-NHCH₂CH₂-(4F-Ph)”, the IC50 turned out to be 15 nM.
Consider `CC(C)(C)OC(=O)N[C@H](CN[C@@H](CC1CC1)C(=O)N[C@@H](CCC(=O)O)C(=O)NCCc1ccccc1)Cc1ccccc1` [Boc-PheΨ[CH₂NH]Cpa-Glu-NHCH₂CH₂Ph], for which the IC50 was 16 nM.
For `CC(C)OC(=O)N[C@@H](CC1CCCCC1)[C@@H](O)CC(=O)N[C@@H](CCC(=O)O)C(=O)NCCCc1ccccc1` [Ipoc-ACHPA-Glu-NH-CH₂CH₂CH₂Ph], the IC50 is 6.3 nM.
For `CCCC[C@H](NC[C@H](Cc1ccccc1)NC(=O)OC(C)(C)C)C(=O)N[C@@H](CCC(=O)O)C(=O)NCCCc1ccccc1` [Boc-PheΨ[CH₂NH]Nle-Glu-NHCH₂CH₂CH₂Ph], the IC50 amounted to 12 nM.
The same measure, in the same setting: in the case of Boc-AHDHA-Glu-NHCH₂CH₂CH₂Ph it was 32 nM; in that of Boc-PheΨ[CH₂NH]Cpa-Glu-NHCH₂CH₂-(4F-Ph), 8.4 nM; in that of “Boc-PheΨ[CH₂NH]Cpa-Glu-NHCH₂CH₂CH₂-(4F-Ph)”, 8 nM.
The same measure, in the same setting: in the case of Boc-homoACHPA-Glu-NHCH₂CH₂CH₂Ph it was 68 nM; in that of `CC(C)[C@H](NC[C@H](Cc1ccccc1)NC(=O)OC(C)(C)C)C(=O)N[C@@H](CCC(=O)O)C(=O)NCCCc1ccccc1` [Boc-PheΨ[CH₂NH]Val-Glu-NHCH₂CH₂₂CH₂Ph], 30 nM; in that of `CC(=O)N[C@@H](CC1CCCCC1)[C@@H](O)CC(=O)N[C@@H](CCC(=O)O)C(=O)NCCCc1ccccc1` [CH₃C(O)-ACHPA-Glu-NHCH₂CH₂CH₂Ph], 160 nM.
As for `COC(=O)CC[C@H](NC(=O)CC[C@H](O)[C@H](CC1CCCCC1)NC(=O)OC(C)(C)C)C(=O)NCCCc1ccccc1` [Boc-ChaΨ[CH(OH)CH₂]Gly-Glu(OMe)-NHCH₂CH₂CH₂Ph], the IC50 was determined as 600 nM.
With `CC(C)(C)OC(=O)N[C@@H](CC1CCCCC1)[C@@H](O)CCC(=O)N[C@@H](CCC(=O)O)C(=O)NCCCc1ccccc1` [Boc-ChaΨ[CH(OH)CH₂]Gly-Glu-NHCH₂CH₂CH₂Ph], the IC50 was determined as 14 nM.
Still for that read-out and setting: in the case of `COC(=O)N[C@@H](CC1CCCCC1)[C@@H](O)CC(=O)N[C@@H](CCC(=O)O)C(=O)NCCCc1ccccc1` [Moc-ACHPA-Glu-NHCH₂CH₂CH₂Ph] it was 15 nM; in that of `CC(C[C@H](NC(=O)C[C@H](O)[C@H](CC1CCCCC1)NC(=O)OC(C)(C)C)C(=O)NCCCc1ccccc1)C(=O)O` (stereo partly drawn) [Boc-ACHPA-{(S)-NHCH[CH₂CH(CH₃)COOH]}C(O)-NHCH₂CH₂CH₂Ph], 18 nM; in that of `CC(C)(C)OC(=O)N[C@@H](CC1CCCCC1)[C@@H](O)CC(=O)N[C@@H](CCC(=O)O)C(=O)NCCOc1ccccc1` [Boc-ACHPA-Glu-NHCH₂CH₂OPh], 8.6 nM.
Take `COC(=O)CC[C@H](NC(=O)C[C@H](O)[C@H](CC1CCCCC1)NC(=O)OC(C)C)C(=O)NCCOCc1ccccc1` [Ipoc-ACHPA-Glu(OMe)-NHCH₂CH₂OBzl]: the IC50 was 150 nM.
Still for that read-out and setting: in the case of `COC(=O)CCC(NC(=O)CC(O)C(CC1CCCCC1)NC(=O)OC(C)(C)C)C(=O)NCCc1ccc(SC)cc1` (stereo not shown) [Boc-ACHPA-Glu(OMe)-NHCH₂CH₂-(4MeS-Ph)] it was 91 nM; in that of `CC(C)(C)OC(=O)N[C@@H](CC1CCCCC1)[C@@H](O)CC(=O)N[C@@H](CCC(=O)O)C(=O)NCCCc1cccs1` [Boc-ACHPA-Glu-NHCH₂CH₂CH₂-(2-thienyl)], 33 nM.
Still for that read-out and setting: in the case of `COC(=O)CC[C@H](NC(=O)C[C@H](O)[C@H](CC1CCCCC1)NC(=O)OC(C)(C)C)C(=O)NCCOCc1ccccc1` [Boc-ACHPA-Glu(OMe)-NHCH₂CH₂OBzl] it was 260 nM.
